What was measured:
Experiment in all cases: relative viability (nuclei count vs DMSO), 5 days (fraction); higher = more cells survive
[1] = compound: O=C(C[C@H]1NCCC[C@@H]1O)Cn1cnc2cc(Br)c(Cl)cc2c1=O (racemic) [Halofuginone] + CC(=O)c1c(C)c2cnc(Nc3ccc(N4CCNCC4)cn3)nc2n(C2CCCC2)c1=O [Palbociclib] (partner 0.5 µM)
Outline: (§1)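 One day after seeding in 1536-well plates, lung cancer cell lines were dosed by pin tool. Dosing was either single-drug or a fixed anchor-drug dose plus five library-drug doses (not always all listed) in √10 steps. After 5 days, nuclei were stained in one fix-and-stain step and counted on 4× images, and relative viability is the nuclei count of treated wells over that of vehicle wells, given as the median of duplicate plates.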

Cediranib + Lapatinib = compound: COc1cc2c(Oc3ccc4[nH]c(C)cc4c3F)ncnc2cc1OCCCN1CCCC1 [Cediranib] + CS(=O)(=O)CCNCc1ccc(-c2ccc3ncnc(Nc4ccc(OCc5cccc(F)c5)c(Cl)c4)c3c2)o1 [Lapatinib] (partner 2 µM)
Outline: as §1

Cediranib + Alpelisib = compound: COc1cc2c(Oc3ccc4[nH]c(C)cc4c3F)ncnc2cc1OCCCN1CCCC1 [Cediranib] + Cc1nc(NC(=O)N2CCC[C@H]2C(N)=O)sc1-c1ccnc(C(C)(C)C(F)(F)F)c1 [Alpelisib] (partner 2 µM)
Outline: as §1

Cediranib + Phenformin = compound: COc1cc2c(Oc3ccc4[nH]c(C)cc4c3F)ncnc2cc1OCCCN1CCCC1 [Cediranib] + N=C(N)NC(=N)NCCc1ccccc1 [Phenformin] (partner 250 µM)
Outline: as §1

Cell Line: UMC-11
- relative viability ([1]; first compound 0.001 µM): 0.359
- relative viability ([1]; first compound 0.003162 µM): 0.306
- relative viability ([1]; first compound 0.01 µM): 0.322
- relative viability ([1]; first compound 0.03162 µM): 0.316
- relative viability ([1]; first compound 0.1 µM): 0.279
- relative viability (Cediranib + Lapatinib; first compound 0.04 µM): 1.07
- relative viability (Cediranib + Lapatinib; first compound 0.1265 µM): 0.48
- relative viability (Cediranib + Lapatinib; first compound 0.4 µM): 0.938
- relative viability (Cediranib + Lapatinib; first compound 1.265 µM): 0.525
- relative viability (Cediranib + Lapatinib; first compound 4 µM): 0.963
- relative viability (Cediranib + Alpelisib; first compound 0.04 µM): 1.06
- relative viability (Cediranib + Alpelisib; first compound 0.1265 µM): 0.879
- relative viability (Cediranib + Alpelisib; first compound 0.4 µM): 0.934
- relative viability (Cediranib + Alpelisib; first compound 1.265 µM): 0.984
- relative viability (Cediranib + Alpelisib; first compound 4 µM): 0.922
- relative viability (Cediranib + Phenformin; first compound 0.04 µM): 0.342
- relative viability (Cediranib + Phenformin; first compound 0.4 µM): 0.346
- relative viability (Cediranib + Phenformin; first compound 4 µM): 0.3
